Each block holds one molecule with its values, some of them ahead of it.
Key:
[1] = Stability of crystal forms in a constant-humidity and constant-temperature cabinet; type: physicochemical; conditions: for Crystal form after exposure, 80° C. and 75% RH, 1 day / Crystal form after exposure, 80° C. and 75% RH, 3 days: powder; for Crystal form stability under 80° C. and 75% RH (text summary of Table 2): time not stated
Description: The stability of crystal forms A, B, C, D, E, F and G of selumetinib sulfate was tested by placing the different crystal forms of selumetinib sulfate into a constant-humidity and constant-temperature cabinet, where the powder of each crystal form was exposed to a temperature of 80° C. and a relative humidity (RH) of 75%.

[2] = cited from earlier work
[3] = solid; cited from earlier work

SMILES: Cn1cnc2c(F)c(Nc3ccc(Br)cc3Cl)c(C(=O)NOCCO)cc21.O=S(=O)(O)O [Crystal form E, selumetinib sulfate]
- Crystal form after exposure, 80° C. and 75% RH, 1 day ([1]; listed as E): Remained E
- Crystal form after exposure, 80° C. and 75% RH, 3 days ([1]; listed as E): Remained E
- Crystal form stability under 80° C. and 75% RH (text summary of Table 2) ([1]; listed as E): remained unchanged

SMILES: Cn1cnc2c(F)c(Nc3ccc(Br)cc3Cl)c(C(=O)NOCCO)cc21.O=S(=O)(O)O [Selumetinib sulfate]
- Solubility in acetonitrile ([2]; acetonitrile): slightly soluble
- Solubility in ethanol ([2]; ethanol): slightly soluble
- Solubility in water ([2]; water): very low solubility
- Hygroscopicity [3]: non-hygroscopic

SMILES: Cn1cnc2c(F)c(Nc3ccc(Br)cc3Cl)c(C(=O)NOCCO)cc21.O=S(=O)(O)O [Crystal form D, selumetinib sulfate]
- Crystal form after exposure, 80° C. and 75% RH, 1 day ([1]; listed as D): Remained D
- Crystal form after exposure, 80° C. and 75% RH, 3 days ([1]; listed as D): Remained D
- Crystal form stability under 80° C. and 75% RH (text summary of Table 2) ([1]; listed as D): remained unchanged

SMILES: Cn1cnc2c(F)c(Nc3ccc(Br)cc3Cl)c(C(=O)NOCCO)cc21.O=S(=O)(O)O [Crystal form C, selumetinib sulfate]
- Crystal form after exposure, 80° C. and 75% RH, 1 day ([1]; listed as C): Remained C
- Crystal form after exposure, 80° C. and 75% RH, 3 days ([1]; listed as C): Remained C
- Crystal form stability under 80° C. and 75% RH (text summary of Table 2) ([1]; listed as C): remained unchanged

SMILES: Cn1cnc2c(F)c(Nc3ccc(Br)cc3Cl)c(C(=O)NOCCO)cc21.O=S(=O)(O)O [Crystal form F, selumetinib sulfate]
- Crystal form after exposure, 80° C. and 75% RH, 1 day ([1]; listed as F): Remained F
- Crystal form after exposure, 80° C. and 75% RH, 3 days ([1]; listed as F): Remained F
- Crystal form stability under 80° C. and 75% RH (text summary of Table 2) ([1]; listed as F): remained unchanged

More lines, now with the values ahead:

- Crystal form after exposure, 80° C. and 75% RH, 1 day ([1]; listed as A): A turned into C
- Crystal form after exposure, 80° C. and 75% RH, 3 days ([1]; listed as A): A turned into C
- Crystal form stability under 80° C. and 75% RH (text summary of Table 2) ([1]; listed as crystal form A): turned into crystal form C
SMILES: Cn1cnc2c(F)c(Nc3ccc(Br)cc3Cl)c(C(=O)NOCCO)cc21.O=S(=O)(O)O [Crystal form A, selumetinib sulfate]

- Crystal form after exposure, 80° C. and 75% RH, 1 day ([1]; listed as G): Remained G
- Crystal form after exposure, 80° C. and 75% RH, 3 days ([1]; listed as G): Remained G
- Crystal form stability under 80° C. and 75% RH (text summary of Table 2) ([1]; listed as G): remained unchanged
SMILES: Cn1cnc2c(F)c(Nc3ccc(Br)cc3Cl)c(C(=O)NOCCO)cc21.O=S(=O)(O)O [Crystal form G, selumetinib sulfate]

- Crystal form after exposure, 80° C. and 75% RH, 1 day ([1]; listed as B): Remained B
- Crystal form after exposure, 80° C. and 75% RH, 3 days ([1]; listed as B): Remained B
- Crystal form stability under 80° C. and 75% RH (text summary of Table 2) ([1]; listed as B): remained unchanged
SMILES: Cn1cnc2c(F)c(Nc3ccc(Br)cc3Cl)c(C(=O)NOCCO)cc21.O=S(=O)(O)O [Crystal form B, selumetinib sulfate]

— US12552751B2, “Crystal forms A, B, C, D, E, F and G of selumetinib sulfate and preparation methods thereof” (Chunghwa Chemical Synthesis & Biotech Co. Ltd., priority 2023, dated 2026)
